Reference: patent publication US7612200B2, “Inhibitors of protein kinases” (Locus Pharmaceuticals, Inc., priority 2004, dated 2009)

Columns and labels:
Format in all cases: biochemical
c-RAF = c-RAF (Homo sapiens, UniProt P04049); experiment: c-RAF Kinase Activity
Description: (§1) c-RAF Kinase Activity: In a final reaction volume of 25 μl, c-RAF (h) (5-10 mU) is incubated with 25 mM Tris pH 7.5, 0.02 mM EGTA, 0.66 mg/ml myelin basic protein, 10 mM MgAcetate, and [γ-^33P-ATP] (specific activity approx. 500 cpm/pmol, concentration as required). The reaction is initiated by the addition of the MgATP mix. After incubation for 40 minutes at room temperature, the reaction is stopped by the addition of 5 μl of a 3% phosphoric acid solution. 10 μl of the reaction is then spotted onto a P30 filtermat and washed three times for 5 minutes in 75 mM phosphoric acid and once in methanol prior to drying and scintillation counting.

JNK2α2 = JNK2α2 (Homo sapiens, UniProt P45984); experiment: JNK2α2 Kinase Activity
Description: as §1, with “JNK2α2 Kinase” for “c-RAF Kinase”, “μl, JNK2α2” for “μl, c-RAF”, “with 50” for “with 25”, “7.5, 0.1” for “7.5, 0.02”, “EGTA, 0.1% β-mercaptoethanol, 3 μM ATF2,” for “EGTA, 0.66 mg/ml myelin basic protein,”, “mM MgAcetate” for “mM MgAcetate,”

Lck = Lck (Homo sapiens, UniProt P06239); experiment: Lck Kinase Activity
Description: as §1, with “Lck Kinase” for “c-RAF Kinase”, “[…], Lck” for “25 μl, c-RAF”, “with 50” for “with 25”, “7.5, 0.1” for “7.5, 0.02”, “EGTA, 0.1 mM Na3VO4, 250 μM KVEKIGEGTYGVVYK (Cdc2 peptide),” for “EGTA, 0.66 mg/ml myelin basic protein,”, “mM MgAcetate” for “mM MgAcetate,”

p38γ = p38γ (Homo sapiens, UniProt P53778); experiment: SAPK3 Kinase Activity (p38γ)
Description: SAPK3 Kinase Activity: In a final reaction volume of 25 μl, SAPK3 (h) (5-10 mU) is incubated with 25 mM Tris pH 7.5, 0.02 mM EGTA, 0.33 mg/ml myelin basic protein, 10 mM MgAcetate and [γ-^33P-ATP] (specific activity approx. 500 cpm/[…], concentration as required). The reaction is initiated by the addition of the MgATP mix. After incubation for 40 minutes at room temperature, the reaction is stopped by the addition of 5 μL of a 3% phosphoric acid solution. 10 μL of the reaction is the spotted onto a P30 filtermat and washed three times for 5 minutes in 75 mM phosphoric acid and once in methanol prior to drying and scintillation counting.

Tie2 = Tie2 (Homo sapiens, UniProt Q02763); experiment: Tie2 Kinase Activity
Description: Tie2 Kinase Activity: In a final reaction volume of 25 μl, Tie2 (h) (5-10 mU) is incubated with 8 mM MOPS pH 7.0, 0.2 mM EDTA, 0.5 mM MnCl2, 0.1 mg/ml poly(Glu, Tyr) 4:1, 10 mM MgAcetate and [γ-^33P-ATP] (specific activity approx. 500 cpm/pmol, concentration as required). The reaction is initiated by the addition of the MgATP mix. After incubation for 40 minutes at room temperature, the reaction is stopped by the addition of 5 μl of a 3% phosphoric acid solution. 10 μl of the reaction is then spotted onto a Filtermat A and washed three times for 5 minutes in 75 mM phosphoric acid and once in methanol prior to drying and scintillation counting.

EphA2 = EphA2 (Homo sapiens, UniProt P29317); experiment: Protein kinase inhibition, EphA2; conditions: Rate (μM) 2, read-out: % Control
EphA5 = EphA5 (Homo sapiens, UniProt P54756); experiment: Protein kinase inhibition, EphA5; conditions: Rate (μM) 2
EphA7 = EphA7 (Homo sapiens, UniProt Q15375); experiment: Protein kinase inhibition, EphA7; conditions: Rate (μM) 2, read-out: % Control
EphA8 = EphA8 (Homo sapiens, UniProt P29322); experiment: Protein kinase inhibition, EphA8; conditions: Rate (μM) 2, read-out: % Control
FGFR1 = FGFR1 (Homo sapiens, UniProt P11362); experiment: Protein kinase inhibition, FGFR1; conditions: Rate (μM) 2, read-out: % Control
Flt1 = Flt1 (Homo sapiens, UniProt P17948); experiment: Protein kinase inhibition, Flt1; conditions: Rate (μM) 2, read-out: % Control
Hck = Hck (Homo sapiens, UniProt P08631); experiment: Protein kinase inhibition, Hck; conditions: Rate (μM) 2, read-out: % Control
KDR = KDR (Homo sapiens, UniProt P35968); experiment: Protein kinase inhibition, KDR; conditions: Rate (μM) 2, read-out: % Control
Lyn = Lyn (Mus musculus, UniProt P25911); experiment: Protein kinase inhibition, Lyn (mouse); conditions: Rate (μM) 2, read-out: % Control
MINK = MINK (Homo sapiens, UniProt Q8N4C8); experiment: Protein kinase inhibition, MINK; conditions: Rate (μM) 2, read-out: % Control
MKK6 = MKK6 (Homo sapiens, UniProt P52564); experiment: Protein kinase inhibition, MKK6; conditions: Rate (μM) 2, read-out: % Control
Mnk2 = Mnk2 (Homo sapiens, UniProt Q9HBH9); experiment: Protein kinase inhibition, Mnk2; conditions: Rate (μM) 2, read-out: % Control
Pyk2 = Pyk2 (Homo sapiens, UniProt Q14289); experiment: Protein kinase inhibition, Pyk2; conditions: Rate (μM) 2, read-out: % Control
TrkA = TrkA (Homo sapiens, UniProt P04629); experiment: Protein kinase inhibition, TrkA; conditions: Rate (μM) 2, read-out: % Control

p38γ, sequence (P53778 whole entry): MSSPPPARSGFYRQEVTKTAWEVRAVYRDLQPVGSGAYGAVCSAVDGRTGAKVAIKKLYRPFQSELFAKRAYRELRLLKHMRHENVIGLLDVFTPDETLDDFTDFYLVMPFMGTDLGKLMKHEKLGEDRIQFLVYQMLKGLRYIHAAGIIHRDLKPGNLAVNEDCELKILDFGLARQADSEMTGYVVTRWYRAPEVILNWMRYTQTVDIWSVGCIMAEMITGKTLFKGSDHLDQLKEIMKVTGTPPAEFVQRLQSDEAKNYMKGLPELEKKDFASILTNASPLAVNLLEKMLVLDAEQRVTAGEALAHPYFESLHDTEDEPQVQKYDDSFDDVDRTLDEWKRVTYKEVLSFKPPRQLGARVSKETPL
Lck, sequence (P06239 whole entry): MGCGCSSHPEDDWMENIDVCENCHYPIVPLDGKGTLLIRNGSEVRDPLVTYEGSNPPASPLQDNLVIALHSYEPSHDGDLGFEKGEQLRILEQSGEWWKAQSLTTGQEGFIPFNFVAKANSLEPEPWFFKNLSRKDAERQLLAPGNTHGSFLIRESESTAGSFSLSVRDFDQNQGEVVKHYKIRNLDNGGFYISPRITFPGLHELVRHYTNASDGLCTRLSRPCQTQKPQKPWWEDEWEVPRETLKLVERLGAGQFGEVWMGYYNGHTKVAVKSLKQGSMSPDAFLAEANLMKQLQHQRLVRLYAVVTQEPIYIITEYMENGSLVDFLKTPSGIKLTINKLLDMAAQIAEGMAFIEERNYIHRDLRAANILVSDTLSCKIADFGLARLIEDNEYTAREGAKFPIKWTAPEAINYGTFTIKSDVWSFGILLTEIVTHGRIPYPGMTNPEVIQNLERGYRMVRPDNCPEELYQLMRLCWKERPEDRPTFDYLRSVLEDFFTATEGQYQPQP
Tie2, sequence (Q02763 23-1124): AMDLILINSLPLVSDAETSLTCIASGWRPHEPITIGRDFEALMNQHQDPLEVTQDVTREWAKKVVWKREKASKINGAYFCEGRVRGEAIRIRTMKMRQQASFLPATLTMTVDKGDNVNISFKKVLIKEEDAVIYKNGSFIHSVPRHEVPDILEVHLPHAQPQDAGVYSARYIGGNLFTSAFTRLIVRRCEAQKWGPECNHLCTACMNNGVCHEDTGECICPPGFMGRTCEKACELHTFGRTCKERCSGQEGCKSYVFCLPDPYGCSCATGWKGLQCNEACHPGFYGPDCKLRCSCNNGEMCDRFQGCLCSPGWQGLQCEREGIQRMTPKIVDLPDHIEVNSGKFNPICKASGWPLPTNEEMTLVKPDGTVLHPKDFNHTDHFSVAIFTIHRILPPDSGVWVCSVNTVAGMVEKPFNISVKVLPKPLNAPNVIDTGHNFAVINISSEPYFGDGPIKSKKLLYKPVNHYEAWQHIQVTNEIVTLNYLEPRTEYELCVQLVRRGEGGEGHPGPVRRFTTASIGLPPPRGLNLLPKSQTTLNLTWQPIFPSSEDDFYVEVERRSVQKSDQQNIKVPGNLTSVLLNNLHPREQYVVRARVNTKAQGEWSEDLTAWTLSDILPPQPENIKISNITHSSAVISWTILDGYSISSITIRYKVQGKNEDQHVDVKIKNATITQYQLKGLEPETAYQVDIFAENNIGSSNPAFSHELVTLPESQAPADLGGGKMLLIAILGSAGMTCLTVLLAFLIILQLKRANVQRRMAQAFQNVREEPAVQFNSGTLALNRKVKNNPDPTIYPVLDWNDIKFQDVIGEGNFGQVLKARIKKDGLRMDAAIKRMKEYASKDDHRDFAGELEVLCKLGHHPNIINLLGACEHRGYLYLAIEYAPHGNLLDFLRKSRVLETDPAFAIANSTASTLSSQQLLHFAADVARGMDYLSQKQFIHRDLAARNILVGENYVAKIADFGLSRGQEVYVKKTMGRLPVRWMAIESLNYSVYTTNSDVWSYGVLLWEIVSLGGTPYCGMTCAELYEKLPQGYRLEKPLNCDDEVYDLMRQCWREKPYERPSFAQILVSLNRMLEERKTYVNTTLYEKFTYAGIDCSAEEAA
c-RAF, sequence (P04049 whole entry): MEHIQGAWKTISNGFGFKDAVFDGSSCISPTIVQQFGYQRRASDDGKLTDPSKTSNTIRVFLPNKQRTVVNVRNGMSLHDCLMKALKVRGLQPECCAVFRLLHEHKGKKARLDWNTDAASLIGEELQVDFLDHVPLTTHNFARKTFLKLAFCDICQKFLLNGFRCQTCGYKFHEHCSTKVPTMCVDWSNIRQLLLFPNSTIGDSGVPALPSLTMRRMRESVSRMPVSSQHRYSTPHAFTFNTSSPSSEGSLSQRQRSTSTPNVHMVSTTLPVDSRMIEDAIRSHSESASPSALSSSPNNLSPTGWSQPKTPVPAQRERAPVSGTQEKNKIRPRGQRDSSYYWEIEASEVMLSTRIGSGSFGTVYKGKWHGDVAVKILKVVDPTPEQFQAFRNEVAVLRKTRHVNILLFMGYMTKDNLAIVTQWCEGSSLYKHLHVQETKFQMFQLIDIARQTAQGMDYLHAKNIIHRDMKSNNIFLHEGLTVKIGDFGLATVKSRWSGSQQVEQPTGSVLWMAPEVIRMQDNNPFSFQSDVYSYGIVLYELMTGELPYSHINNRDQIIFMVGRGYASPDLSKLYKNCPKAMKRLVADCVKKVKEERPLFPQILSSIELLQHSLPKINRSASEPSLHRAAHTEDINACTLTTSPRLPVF
JNK2α2, sequence (P45984 whole entry): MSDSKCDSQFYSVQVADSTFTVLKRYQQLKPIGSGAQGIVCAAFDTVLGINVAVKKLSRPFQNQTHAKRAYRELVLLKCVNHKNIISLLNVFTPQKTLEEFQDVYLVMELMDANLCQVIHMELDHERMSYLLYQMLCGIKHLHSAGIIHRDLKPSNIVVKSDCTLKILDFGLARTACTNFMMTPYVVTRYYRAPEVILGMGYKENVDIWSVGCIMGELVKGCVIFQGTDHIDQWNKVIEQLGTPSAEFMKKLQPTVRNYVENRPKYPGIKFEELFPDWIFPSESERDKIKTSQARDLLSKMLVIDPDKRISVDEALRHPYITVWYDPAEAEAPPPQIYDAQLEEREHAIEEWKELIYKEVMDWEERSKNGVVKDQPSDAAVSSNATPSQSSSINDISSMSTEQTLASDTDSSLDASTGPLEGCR
Hck, sequence (P08631 whole entry): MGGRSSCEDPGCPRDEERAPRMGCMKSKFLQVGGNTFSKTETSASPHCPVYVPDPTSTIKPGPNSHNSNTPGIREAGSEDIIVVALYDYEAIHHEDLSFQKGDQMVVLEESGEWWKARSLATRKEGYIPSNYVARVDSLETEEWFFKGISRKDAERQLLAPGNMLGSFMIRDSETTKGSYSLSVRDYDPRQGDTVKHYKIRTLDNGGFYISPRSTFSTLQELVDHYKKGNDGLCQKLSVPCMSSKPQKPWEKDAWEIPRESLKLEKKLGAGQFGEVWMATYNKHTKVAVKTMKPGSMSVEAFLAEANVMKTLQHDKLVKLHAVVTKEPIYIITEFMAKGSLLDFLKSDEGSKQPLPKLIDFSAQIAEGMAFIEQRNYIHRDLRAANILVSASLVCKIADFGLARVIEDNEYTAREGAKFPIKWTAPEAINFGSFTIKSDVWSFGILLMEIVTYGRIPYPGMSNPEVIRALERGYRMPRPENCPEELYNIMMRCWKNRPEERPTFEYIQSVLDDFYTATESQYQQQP
EphA2, sequence (P29317 24-976): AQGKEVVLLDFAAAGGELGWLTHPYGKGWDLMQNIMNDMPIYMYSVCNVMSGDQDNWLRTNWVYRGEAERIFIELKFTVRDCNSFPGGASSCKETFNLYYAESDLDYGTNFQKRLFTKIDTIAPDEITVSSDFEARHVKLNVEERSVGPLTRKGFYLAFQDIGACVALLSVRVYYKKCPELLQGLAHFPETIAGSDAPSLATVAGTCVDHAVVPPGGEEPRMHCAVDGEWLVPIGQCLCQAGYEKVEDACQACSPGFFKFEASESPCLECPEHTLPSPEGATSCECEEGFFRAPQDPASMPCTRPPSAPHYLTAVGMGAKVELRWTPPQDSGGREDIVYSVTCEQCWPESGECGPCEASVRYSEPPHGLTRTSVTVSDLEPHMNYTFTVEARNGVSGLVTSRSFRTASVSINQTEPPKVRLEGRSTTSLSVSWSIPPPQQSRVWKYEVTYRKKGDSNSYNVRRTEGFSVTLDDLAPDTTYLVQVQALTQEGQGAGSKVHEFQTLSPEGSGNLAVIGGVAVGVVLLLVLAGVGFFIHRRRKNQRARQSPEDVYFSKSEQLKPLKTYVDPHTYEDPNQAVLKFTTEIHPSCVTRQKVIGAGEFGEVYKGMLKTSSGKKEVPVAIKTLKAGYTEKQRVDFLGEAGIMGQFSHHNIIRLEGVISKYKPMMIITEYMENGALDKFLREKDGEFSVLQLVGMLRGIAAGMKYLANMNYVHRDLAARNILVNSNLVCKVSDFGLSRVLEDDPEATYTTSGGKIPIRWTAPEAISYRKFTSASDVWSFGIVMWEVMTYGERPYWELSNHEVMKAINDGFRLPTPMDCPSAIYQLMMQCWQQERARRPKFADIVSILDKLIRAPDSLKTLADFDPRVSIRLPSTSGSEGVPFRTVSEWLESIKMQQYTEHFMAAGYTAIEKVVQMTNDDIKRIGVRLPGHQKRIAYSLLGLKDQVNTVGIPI
Lyn, sequence (P25911 whole entry): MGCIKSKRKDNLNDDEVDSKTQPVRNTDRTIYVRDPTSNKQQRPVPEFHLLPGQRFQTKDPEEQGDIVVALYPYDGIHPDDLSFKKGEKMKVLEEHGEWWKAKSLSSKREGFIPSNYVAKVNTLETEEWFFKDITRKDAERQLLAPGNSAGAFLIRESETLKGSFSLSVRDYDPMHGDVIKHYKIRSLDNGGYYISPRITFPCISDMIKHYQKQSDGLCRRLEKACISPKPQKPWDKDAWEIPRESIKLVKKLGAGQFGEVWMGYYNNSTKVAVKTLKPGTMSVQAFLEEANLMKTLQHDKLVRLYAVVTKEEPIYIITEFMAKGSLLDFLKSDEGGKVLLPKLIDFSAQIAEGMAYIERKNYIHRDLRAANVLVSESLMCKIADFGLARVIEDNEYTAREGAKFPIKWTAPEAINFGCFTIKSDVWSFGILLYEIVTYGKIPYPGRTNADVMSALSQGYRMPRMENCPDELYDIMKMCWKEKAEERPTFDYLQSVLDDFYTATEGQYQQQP

remaining activity at 2 µM (c-RAF; 40 min, cRaf, Human, Rate (μM) 2, read-out: % Control): 76 to 100%
% Inhibition at 2 μm (c-RAF; c-RAF, compound at 2 μm): 76-100%
% Inhibition at 2 μm (JNK2α2; JNK2a2, compound at 2 μm): 26-50%
% inhibition (JNK2α2; JNK2α2, Human, Rate (μM) 2): 26-50%
remaining activity at 2 µM (Lck; 40 min, Lck, Human, Rate (μM) 2, read-out: % Control): 51 to 75%
% Inhibition at 2 μm (Lck; LCK, compound at 2 μm): 51-75%
remaining activity at 2 µM (p38γ; 40 min, P38g, Human, Rate (μM) 2, read-out: % Control): 76 to 100%
% Inhibition at 2 μm (p38γ; p38γ, compound at 2 μm): 76-100%
remaining activity at 2 µM (Tie2; 40 min, Tie2, Human, Rate (μM) 2, read-out: % Control): 76 to 100%
% Inhibition at 2 μm (Tie2; Tie2, compound at 2 μm): 76-100%
remaining activity at 2 µM (EphA2): 76 to 100%
% Control (EphA5): 76-100%
remaining activity at 2 µM (EphA7): 76 to 100%
remaining activity at 2 µM (EphA8): 76 to 100%
remaining activity at 2 µM (FGFR1): 76 to 100%
remaining activity at 2 µM (Flt1): 76 to 100%
remaining activity at 2 µM (Hck): 76 to 100%
remaining activity at 2 µM (KDR): 76 to 100%
remaining activity at 2 µM (Lyn): 76 to 100%
remaining activity at 2 µM (MINK): 51 to 75%
remaining activity at 2 µM (MKK6): 76 to 100%
remaining activity at 2 µM (Mnk2): 76 to 100%
remaining activity at 2 µM (Pyk2): 51 to 75%
remaining activity at 2 µM (TrkA): 76 to 100%
Compound: CC(C)(C)c1cc(C(=O)N2CCS(=O)(=O)CC2)c(NC(=O)Nc2ccc(Oc3ccncc3)cc2)s1 [Example 3, 1-[5-tert-Butyl-3-(1,1-dioxo-1λ^6-thiomorpholine-4-carbonyl)thiophen-2-yl]-3-[4-(pyridin-4-yloxy)phenyl]urea]
